# In patent US12564638B2 (SHANGHAITECH UNIVERSITY, priority 2019, dated 2026):
# System: HCC827 cells (EGFR Exon19 del, non-small cell lung cancer cells)
# Assay: Cell viability assay (WST/CCK8), HCC827 cells
# Format: cell-based
# Conditions: Homo sapiens, HCC827, 72 h, HCC827 (Exon19 Del), 72 hours, WST (CCK8); read-out: IC50 (half inhibitory concentration)
# Excerpt: The cell lines with abnormal EGFR expression used are as follows: • HCC827 cells (EGFR Exon19 del, non-small cell lung cancer cells); • PC9 cells (EGFR Exon 19 del, non-small cell lung cancer cells); • PC9BracA1 (EGFR Exon 19 del+T790M, non-small cell lung cancer cells) • H1975 (EGFR Exon T790M+L858R mutation, non-small cell lung cancer cell line) • BT474 cells (HER2 positive breast cancer cells)
# All of the half inhibitory concentrations (IC50) of these compounds of the present invention were determined with WST reagent from Fuyuan Biotec Company. The specific experiment procedures are as follows: Cancer cells were planted in 96-well-plate at the density of 3 000 cells per well with 100 μL RPMI1640 completed culture medium. In the next day, compounds with indicated concentrations were added to the cells, DMSO was used as the negative control and the EGFR TKIs were used to treat cells as the positive groups. After 72 hours drug treatment, cell viability was measured by using the WST reagent following the instructions.
# The cells were treated with the gradient concentration of these compounds (the maximum concentration: 10 μM; 3-fold dilution ratio, 10 concentration gradients) for 72 hours and then incubated with the WST (CCK8) reagent to determine the cell viability.
row,SMILES,IC50 [µM]
1,"COc1cc2ncnc(Nc3ccc(F)c(Cl)c3)c2cc1NC(=O)/C=C/CN1CCC(N2CCN(CCCCCCNc3cccc4c3C(=O)N(C3CCC(=O)NC3=O)C4=O)CC2)CC1 (stereo not shown) [SIAIS262072, (E)-N-(4-((3-chloro-4-fluorophenyl)amino)-7-methoxyquinazolin-6-yl)-4-(4-(4-(6-((2-(2,6-dioxopiperidin-3-yl)-1,3-dioxoisoindolin-4-yl)amino)hexyl)piperazin-1-yl)piperidin-1-yl)but-2-enamide]",0.0169
2,"COc1cc2ncnc(Nc3ccc(F)c(Cl)c3)c2cc1NC(=O)/C=C/CN1CCC(N2CCN(CCCCCNc3cccc4c3C(=O)N(C3CCC(=O)NC3=O)C4=O)CC2)CC1 (stereo not shown) [SIAIS262071, (E)-N-(4-((3-chloro-4-fluorophenyl)amino)-7-methoxyquinazolin-6-yl)-4-(4-(4-(5-((2-(2,6-dioxopiperidin-3-yl)-1,3-dioxoisoindolin-4-yl)amino)pentyl)piperazin-1-yl)piperidin-1-yl)but-2-enamide]",0.0059

# Same assay, conditions: Homo sapiens, HCC827, 72 h, Table 3, poziotinib-based compounds; HCC827 (Exon19 Del); 72 hours; WST (CCK8); read-out: IC50 (half inhibitory concentration)
row,SMILES,IC50 [µM]
1,"COc1cc2ncnc(Nc3ccc(Cl)c(Cl)c3F)c2cc1OC1CCN(C(=O)CCCCCCCCC(=O)N[C@H](C(=O)N2C[C@H](O)C[C@H]2C(=O)NCc2ccc(-c3scnc3C)cc2)C(C)(C)C)CC1 [SIAIS249023, (2S,4R)-1-((S)-2-(10-(4-((4-((3,4-dichloro-2-fluorophenyl)amino)-7-methoxyquinazolin-6-yl)oxy)piperidin-1-yl)-10-oxodecanamido)-3,3-dimethylbutanoyl)-4-hydroxy-N-(4-(4-methylthiazol-5-yl)benzyl)pyrrolidine-2-carboxamide]",0.049
2,"COc1cc2ncnc(Nc3ccc(Cl)c(Cl)c3F)c2cc1OC1CCN(C(=O)CCOCCOCCOCCOCCOCCC(=O)N[C@H](C(=O)N2C[C@H](O)C[C@H]2C(=O)NCc2ccc(-c3scnc3C)cc2)C(C)(C)C)CC1 [SIAIS249028, (2S,4R)-1-((S)-2-(tert-butyl)-22-(4-((4-((3,4-dichloro-2-fluorophenyl)amino)-7-methoxyquinazolin-6-yl)oxy)piperidin-1-yl)-4,22-dioxo-7,10,13,16,19-pentaoxa-3-azadocosan-1-oyl)-4-hydroxy-N-(4-(4-methylthiazol-5-yl)benzyl)pyrrolidine-2-carboxamide]",0.24
3,"COc1cc2ncnc(Nc3ccc(Cl)c(Cl)c3F)c2cc1OC1CCN(C(=O)CCOCCOCCOCCNc2cccc3c2C(=O)N(C2CCC(=O)NC2=O)C3=O)CC1 (stereo not shown) [SIAIS249031, 4-((2-(2-(2-(3-(4-((4-((3,4-dichloro-2-fluorophenyl)amino)-7-methoxyquinazolin-6-yl)oxy)piperidin-1-yl)-3-oxopropoxy)ethoxy)ethoxy)ethyl)amino)-2-(2,6-dioxopiperidin-3-yl)isoindoline-1,3-dione]",0.0282
4,"COc1cc2ncnc(Nc3ccc(Cl)c(Cl)c3F)c2cc1OC1CCN(C(=O)CCOCCOCCOCCOCCNc2cccc3c2C(=O)N(C2CCC(=O)NC2=O)C3=O)CC1 (stereo not shown) [SIAIS249032, 4-((15-(4-((4-((3,4-dichloro-2-fluorophenyl)amino)-7-methoxyquinazolin-6-yl)oxy)piperidin-1-yl)-15-oxo-3,6,9,12-tetraoxapentadecyl)amino)-2-(2,6-dioxopiperidin-3-yl)isoindoline-1,3-dione]",0.011
5,"COc1cc2ncnc(Nc3ccc(Cl)c(Cl)c3F)c2cc1OC1CCN(C(=O)CCCCCCSc2cccc3c2C(=O)N(C2CCC(=O)NC2=O)C3=O)CC1 (stereo not shown) [SIAIS249019, 4-((7-(4-((4-((3,4-dichloro-2-fluorophenyl)amino)-7-methoxyquinazolin-6-yl)oxy)piperidin-1-yl)-7-oxoheptyl)thio)-2-(2,6-dioxopiperidin-3-yl)isoindoline-1,3-dione]",0.038

# Same assay, conditions: Homo sapiens, HCC827, 72 h, Table 4, gefitinib and sapitinib-based compounds; HCC827 (Exon19 Del); 72 hours; WST; read-out: IC50 (half inhibitory concentration)
row,SMILES,IC50 [µM]
1,"COc1cc2ncnc(Nc3ccc(F)c(Cl)c3)c2cc1OC1CCN(CC(=O)O)CC1 [Gefitinib derivative C (SIAIS293033), 2-(4-((4-((3-chloro-4-fluorophenyl)amino)-7-methoxyquinazolin-6-yl)oxy)piperidin-1-yl)acetic acid]",0.575
2,"COc1cc2ncnc(Nc3ccc(F)c(Cl)c3)c2cc1OC1CCN(CC(=O)NCCCCSc2cccc3c2CN(C2CCC(=O)NC2=O)C3=O)CC1 (stereo not shown) [SIAIS293049, 2-(4-((4-((3-chloro-4-fluorophenyl)amino)-7-methoxyquinazolin-6-yl)oxy)piperidin-1-yl)-N-(4-((2-(2,6-dioxopiperidin-3-yl)-1-oxoisoindolin-4-yl)thio)butyl)acetamide]",0.0028
3,"COc1cc2ncnc(Nc3ccc(F)c(Cl)c3)c2cc1OCCCN1CCC(N2CCN(C(=O)CCCCCSc3cccc4c3CN(C3CCC(=O)NC3=O)C4=O)CC2)CC1 (stereo not shown) [SIAIS262087, 3-(4-((6-(4-(1-(3-((4-((3-chloro-4-fluorophenyl)amino)-7-methoxyquinazolin-6-yl)oxy)propyl)piperidin-4-yl)piperazin-1-yl)-6-oxohexyl)thio)-1-oxoisoindolin-2-yl)piperidine-2,6-dione]",0.031
4,"COc1cc2ncnc(Nc3ccc(F)c(Cl)c3)c2cc1OCCCN1CCN(C(=O)CCCSc2cccc3c2CN(C2CCC(=O)NC2=O)C3=O)CC1 (stereo not shown) [SIAIS184185, 3-(4-((4-(4-(3-((4-((3-chloro-4-fluorophenyl)amino)-7-methoxyquinazolin-6-yl)oxy)propyl)piperazin-1-yl)-4-oxobutyl)thio)-1-oxoisoindolin-2-yl)piperidine-2,6-dione]",0.113
5,"COc1cc2ncnc(Nc3ccc(F)c(Cl)c3)c2cc1OCCCN1CCN(C(=O)CCCCCSc2cccc3c2CN(C2CCC(=O)NC2=O)C3=O)CC1 (stereo not shown) [SIAIS184186, 3-(4-((6-(4-(3-((4-((3-chloro-4-fluorophenyl)amino)-7-methoxyquinazolin-6-yl)oxy)propyl)piperazin-1-yl)-6-oxohexyl)thio)-1-oxoisoindolin-2-yl)piperidine-2,6-dione]",0.124
6,"COc1cc2ncnc(Nc3ccc(F)c(Cl)c3)c2cc1OCCCN1CCN(C(=O)CSc2cccc3c2C(=O)N(C2CCC(=O)NC2=O)C3=O)CC1 (stereo not shown) [SIAIS184164, 4-((2-(4-(3-((4-((3-chloro-4-fluorophenyl)amino)-7-methoxyquinazolin-6-yl)oxy)propyl)piperazin-1-yl)-2-oxoethyl)thio)-2-(2,6-dioxopiperidin-3-yl)isoindoline-1,3-dione]",0.047
7,"COc1cc2ncnc(Nc3ccc(F)c(Cl)c3)c2cc1OCCCN1CCNCC1 [Gefitinib derivative A (SIAIS184161), N-(3-chloro-4-fluorophenyl)-7-methoxy-6-(3-(piperazin-1-yl)propoxy)quinazolin-4-amine]",0.01
8,"COc1cc2ncnc(Nc3cccc(Cl)c3F)c2cc1OC1CCN(CC(=O)NCCCCCCCSc2cccc3c2CN(C2CCC(=O)NC2=O)C3=O)CC1 (stereo not shown) [SIAIS293069, 2-(4-((4-((3-chloro-2-fluorophenyl)amino)-7-methoxyquinazolin-6-yl)oxy)piperidin-1-yl)-N-(7-((2-(2,6-dioxopiperidin-3-yl)-1-oxoisoindolin-4-yl)thio)heptyl)acetamide]",0.0094

# Same assay, conditions: Homo sapiens, HCC827, 72 h, Table 5, afatinib-based compounds; HCC827 (Exon19 Del); 72 hours; WST; read-out: IC50 (half inhibitory concentration)
row,SMILES,IC50 [µM]
1,"O=C1CCC(N2Cc3c(SCCCC(=O)Nc4cc5c(Nc6ccc(F)c(Cl)c6)ncnc5cc4O[C@H]4CCOC4)cccc3C2=O)C(=O)N1 (stereo partly drawn) [SIAIS1210087, N-(4-((3-chloro-4-fluorophenyl)amino)-7-(((S)-tetrahydrofuran-3-yl)oxy)quinazolin-6-yl)-4-((2-(2,6-dioxopiperidin-3-yl)-1-oxoisoindolin-4-yl)thio)butanamide]",0.238
2,"O=C1CCC(N2C(=O)c3cccc(SCCOCC(=O)Nc4cc5c(Nc6ccc(F)c(Cl)c6)ncnc5cc4O[C@H]4CCOC4)c3C2=O)C(=O)N1 (stereo partly drawn) [SIAIS184152, N-(4-((3-chloro-4-fluorophenyl)amino)-7-(((S)-tetrahydrofuran-3-yl)oxy)quinazolin-6-yl)-2-(2-((2-(2,6-dioxopiperidin-3-yl)-1,3-dioxoisoindolin-4-yl)thio)ethoxy)acetamide]",0.131
3,"O=C1CCC(N2C(=O)c3cccc(SCCOCCOCCOCCOCCOCC(=O)Nc4cc5c(Nc6ccc(F)c(Cl)c6)ncnc5cc4O[C@H]4CCOC4)c3C2=O)C(=O)N1 (stereo partly drawn) [SIAIS184156, N-(4-((3-chloro-4-fluorophenyl)amino)-7-(((S)-tetrahydrofuran-3-yl)oxy)quinazolin-6-yl)-17-((2-(2,6-dioxopiperidin-3-yl)-1,3-dioxoisoindolin-4-yl)thio)-3,6,9,12,15-pentaoxaheptadecan-1-amide]",0.978

# Same assay, conditions: Homo sapiens, HCC827, 72 h, Table 8, osimertinib-based compounds; HCC827; 72 hours; WST; read-out: IC50 (half inhibitory concentration)
row,SMILES,IC50 [µM]
1,"C=CC(=O)Nc1cc(Nc2nccc(-c3cn(C)c4ccccc34)n2)c(OC)cc1N(C)CCN(C)C(=O)CSc1cccc2c1CN(C1CCC(=O)NC1=O)C2=O (stereo not shown) [SIAIS337052, N-(2-((2-(2-((2-(2,6-dioxopiperidin-3-yl)-1-oxoisoindolin-4-yl)thio)-N-methylacetamido)ethyl)(methyl)amino)-4-methoxy-5-((4-(1-methyl-1H-indol-3-yl)pyrimidin-2-yl)amino)phenyl)acrylamide]",0.353
